Source: publication PMC7397269, “Synthesis and Evaluation of New Coumarin Derivatives as Antioxidant, Antimicrobial, and Anti-Inflammatory Agents” (Molecules, 2020)
In brackets after ≈: the same amount, converted by molar mass. Several values for one entry are separate records, joined by “and”; a condition that tells them apart may be missing. Equal values may be shown once. Read-outs that look alike come from different tables or passages of the source.

Key:
[1] = target: T1, COX-2 (Homo sapiens, UniProt P35354); assay: COX-2 inhibition, Cayman assay kit; format: biochemical; conditions: for IC50: mean of two determinations; for SI, selectivity index (COX-1/COX-2): ratio of COX-1/COX-2 IC50
T1 construct: purchased Cayman Chemical 701080
T1 sequence (P35354 18-604): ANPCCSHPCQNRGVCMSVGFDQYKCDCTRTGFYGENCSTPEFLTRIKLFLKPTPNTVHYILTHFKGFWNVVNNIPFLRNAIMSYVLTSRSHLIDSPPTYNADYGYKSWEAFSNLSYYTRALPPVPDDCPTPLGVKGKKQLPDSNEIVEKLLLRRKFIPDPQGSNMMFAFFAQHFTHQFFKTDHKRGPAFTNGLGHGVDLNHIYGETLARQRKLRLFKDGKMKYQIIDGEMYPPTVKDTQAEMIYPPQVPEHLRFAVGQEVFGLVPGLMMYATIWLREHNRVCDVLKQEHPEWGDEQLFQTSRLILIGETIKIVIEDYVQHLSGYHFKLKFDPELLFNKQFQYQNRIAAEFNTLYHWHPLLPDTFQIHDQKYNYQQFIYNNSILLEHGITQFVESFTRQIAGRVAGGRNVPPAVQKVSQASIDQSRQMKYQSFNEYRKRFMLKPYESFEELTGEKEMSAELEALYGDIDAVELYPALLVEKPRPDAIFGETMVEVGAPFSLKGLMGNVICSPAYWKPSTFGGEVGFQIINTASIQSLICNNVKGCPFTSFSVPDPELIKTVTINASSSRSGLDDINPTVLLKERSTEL

[2] = tested on: Escherichia coli ATCC 2592; assay: Agar well diffusion, E. coli; format: cell-based; conditions: ATCC2592, 100 μL of 10 mg/mL in DMSO, read-out: diameter of inhibition zone, EC
How it was run: (§1)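 Read-out: inhibition zone diameter in mm, mean of triplicate runs. Compound solution (10 mg/mL in DMSO, 100 μL) was loaded into 10 mm wells cut in seeded NA (bacteria, 1 × 10^8 CFU/mL) or SDA (yeast, 1 × 10^6 CFU/mL), then incubated 24 h at 37 °C.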

[3] = tested on: tested microorganisms; assay: Agar well diffusion, summary over the tested microorganisms; format: cell-based; conditions: all tested microorganisms
Excerpt: (§2) The new molecules were individually tested for their antimicrobial activity in vitro against standard bacteria strains from the American Type Culture Collection (ATCC), namely, Staphylococcus aureus ATCC 29213, Bacillus subtilis ATCC 6633, Bacillus megaterium ATCC 9885 (Gram-positive), Escherichia coli ATCC 2592, and Pseudomonas aeruginosa ATCC 27,953 (Gram-negative). The compounds were also microbiologically tested against locally isolated Saccharomyces cerevisiae (yeast) and the standard Agricultural Research Service Culture Collection (NRRL) strain of the yeast-like pathogenic fungus Candida albicans NRRL Y-477. Primary screening was conducted using the agar well diffusion method using nutrient agar (NA) medium and Sabourand dextrose agar (SDA) medium for the tested pathological bacteria and yeast, respectively. […].
Antimicrobial tests were conducted via the agar well diffusion method using 100 μL of suspension containing 1 × 10^8 CFU/mL pathological tested bacteria and 1 × 10^6 CFU/mL yeast spread on NA and SDA, respectively. […] After incubation, antimicrobial activity was evaluated by measuring the zone of inhibition against the test organisms and compared with that of the standard. Antimicrobial activities were expressed as the diameter of the inhibition zone (IZ) in mm. The experiment was carried out in triplicate and the average zone of inhibition was calculated.

[4] = tested on: trypsin; assay: Proteinase-inhibitory activity; format: biochemical; conditions: 250 µg/mL; mean ± SD (n = 3)
How it was run: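 Trypsin (0.06 mg per 2 mL, 20 mM Tris-HCl pH 7.4) was preincubated 5 min with test sample at 250 µg/mL, then 0.8% casein was added for 20 min. Perchloric acid stopped the reaction and supernatant absorbance was read at 280 nm. % inhibition is relative to the no-sample control, in triplicate.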

[5] = tested on: Candida albicans NRRL Y-477; assay: Agar well diffusion, C. albicans; format: cell-based; conditions: NRRLY477, 100 μL of 10 mg/mL in DMSO, read-out: diameter of inhibition zone, CA
How it was run: as §1

[6] = tested on: Saccharomyces cerevisiae local isolate; assay: Agar well diffusion, S. cerevisiae; format: cell-based; conditions: read-out: diameter of inhibition zone, SC
How it was run: as §1

[7] = target: T2, COX-1 (Homo sapiens, UniProt P23219); assay: COX-1 inhibition, Cayman assay kit; format: biochemical; conditions: mean of two determinations
T2 construct: purchased Cayman Chemical 701070
T2 sequence (P23219 24-599): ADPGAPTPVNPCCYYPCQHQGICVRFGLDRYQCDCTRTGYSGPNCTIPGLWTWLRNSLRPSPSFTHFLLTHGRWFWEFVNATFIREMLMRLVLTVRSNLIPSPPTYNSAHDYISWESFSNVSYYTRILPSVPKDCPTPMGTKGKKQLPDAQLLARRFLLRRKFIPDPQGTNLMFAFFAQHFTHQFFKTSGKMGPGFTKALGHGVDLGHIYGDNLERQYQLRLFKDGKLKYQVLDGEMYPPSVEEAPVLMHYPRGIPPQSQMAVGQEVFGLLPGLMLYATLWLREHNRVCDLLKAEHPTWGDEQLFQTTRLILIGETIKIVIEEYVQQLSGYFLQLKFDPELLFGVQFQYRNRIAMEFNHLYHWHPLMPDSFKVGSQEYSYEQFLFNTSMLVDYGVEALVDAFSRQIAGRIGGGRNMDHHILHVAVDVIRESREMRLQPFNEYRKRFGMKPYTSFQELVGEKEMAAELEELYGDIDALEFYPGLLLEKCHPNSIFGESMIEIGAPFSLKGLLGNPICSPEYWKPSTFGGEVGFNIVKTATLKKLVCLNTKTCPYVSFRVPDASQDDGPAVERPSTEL

[8] = DPPH antioxidant assay (radical scavenging); format: biochemical; conditions: mean ± SD (n = 3)
How it was run: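 Compounds, starting at 200 μg/mL, were mixed with 0.2 mM methanolic DPPH and incubated 30 min in the dark at 25 °C; absorbance was read at 515 nm. % inhibition is background-corrected against DPPH-only control, with IC50 from curve fit. Runs were triplicate (mean ± SD), with ascorbic acid as positive control.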

[9] = tested on: Staphylococcus aureus ATCC 29213; assay: Agar well diffusion, S. aureus; format: cell-based; conditions: ATCC29213, 100 μL of 10 mg/mL in DMSO, read-out: diameter of inhibition zone, SA
How it was run: as §1

[10] = tested on: Pseudomonas aeruginosa ATCC 27,953; assay: Agar well diffusion, P. aeruginosa; format: cell-based; conditions: ATCC27, 100 μL of 10 mg/mL in DMSO, read-out: diameter of inhibition zone, PA
How it was run: as §1

[11] = tested on: Bacillus megaterium ATCC 9885; assay: Agar well diffusion, B. megaterium; format: cell-based; conditions: Priestia megaterium, ATCC9885, 100 μL of 10 mg/mL in DMSO, read-out: diameter of inhibition zone, BM
How it was run: as §1

[12] = tested on: Bacillus subtilis ATCC 6633; assay: Agar well diffusion, B. subtilis; format: cell-based; conditions: ATCC6633, 100 μL of 10 mg/mL in DMSO, read-out: diameter of inhibition zone, BS
How it was run: as §1

[13] = tested on: Escherichia coli ATCC 2592; assay: MIC, two-fold serial dilution, E. coli; format: cell-based; conditions: ATCC2592, read-out: Minimum inhibitory concentration, EC
Excerpt: as §2
(§3) The bacteriostatic activity of the active compounds (having IZ > 16 mm) was then evaluated using the two-fold serial dilution technique. Two-fold serial dilutions of the tested compounds solutions were prepared using the proper nutrient broth to reach final concentrations of 1000, 500, 250, and 125 μg/mL. The tubes were then inoculated with the test microorganisms grown in their suitable broth at 37 °C for 24 h (1 × 10^8 CFU/mL for bacteria and 1 × 10^6 CFU/mL of yeast), 0.1 mL of the above inoculum was administered per 5 mL, and the tubes were incubated at 37 °C for 24 h. The lowest concentration showing no growth was taken as the MIC.

[14] = tested on: Saccharomyces cerevisiae local isolate; assay: MIC, two-fold serial dilution, S. cerevisiae; format: cell-based; conditions: read-out: Minimum inhibitory concentration, SC
How it was run: (§4)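 Broth tube dilution, two-fold, final 1000–125 μg/mL; inoculum 1 × 10^8 CFU/mL bacteria, 1 × 10^6 CFU/mL yeast (0.1 mL/5 mL); 37 °C, 24 h; MIC read as lowest conc. with no visible growth. Only agar-diffusion actives (IZ > 16 mm) tested.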

[15] = tested on: Staphylococcus aureus ATCC 29213; assay: MIC, two-fold serial dilution, S. aureus; format: cell-based; conditions: ATCC29213, read-out: Minimum inhibitory concentration, SA
Excerpt: as §2, §3

[16] = tested on: Pseudomonas aeruginosa ATCC 27,953; assay: MIC, two-fold serial dilution, P. aeruginosa; format: cell-based; conditions: ATCC27, read-out: Minimum inhibitory concentration, PA
Excerpt: as §2, §3

[17] = tested on: Candida albicans NRRL Y-477; assay: MIC, two-fold serial dilution, C. albicans; format: cell-based; conditions: NRRLY477, read-out: Minimum inhibitory concentration, CA
How it was run: as §4

[18] = tested on: tested microorganisms; assay: MIC, summary over the tested microorganisms; format: cell-based; conditions: two-fold serial dilution; read-out: MIC against most tested microorganisms
Excerpt: as §2, §3

[19] = tested on: Bacillus subtilis ATCC 6633; assay: MIC, two-fold serial dilution, B. subtilis; format: cell-based; conditions: ATCC6633, read-out: Minimum inhibitory concentration, BS
Excerpt: as §2, §3

[20] = tested on: Bacillus megaterium ATCC 9885; assay: MIC, two-fold serial dilution, B. megaterium; format: cell-based; conditions: Priestia megaterium, ATCC9885, read-out: Minimum inhibitory concentration, BM
Excerpt: as §2, §3

[21] = tested on: formaldehyde-induced rat paw oedema; assay: Formaldehyde-induced rat paw oedema (prophylactic); format: in vivo; conditions: for paw volume reduced compared to positive control: 25 mg/kg orally

| SMILES | IC50 [1] | SI, selectivity index (COX-1/COX-2) [1] | zone of inhibition at 10000 µg/mL [2] | melting point | % Inhibition (proteinase) [4] | zone of inhibition at 10000 µg/mL [5] | IC50 [7] | IC50 [8] | zone of inhibition at 10000 µg/mL [9] | zone of inhibition at 10000 µg/mL [10] | zone of inhibition at 10000 µg/mL [11] | zone of inhibition at 10000 µg/mL [12] | zone of inhibition at 10000 µg/mL [6] | MIC [19] | other results |
| --- | --- | --- | --- | --- | --- | --- | --- | --- | --- | --- | --- | --- | --- | --- | --- |
| Cc1ccc2oc(=O)c(S(=O)(=O)Nc3ccc(S(N)(=O)=O)cc3)c(O)c2c1 [7b, 4-Hydroxy-6-methyl-2-oxo-N-(4-sulfamoylphenyl)-2H-chromene-3-sulfonamide] | 8.24 µM | 5.78 | < 15 mm | 241 to 243 °C | 5.93 ± 2.11% | < 15 mm | 47.6 µM | 61.78 ± 2.719 µg/mL (≈ 151 µM) | < 15 mm | < 15 mm | < 15 mm | < 15 mm |  |  | IZ against the tested microorganisms [3]: < 15 mm; zone of inhibition at 10000 µg/mL ([6]; well diffusion, 100 μL of 10 mg/mL in DMSO, S. cerevisiae): < 15 mm |
| Cc1ccc2oc(=O)c3c(c2c1)OC(/N=C/c1ccccc1)=C(C#N)C3c1ccc([N+](=O)[O-])cc1 (racemic) [5a, (±)-2-(benzylideneamino)-9-methyl-4-(4-nitrophenyl)-5-oxo-4H,5H-pyrano[3,2-c]chromene-3-carbonitrile] | 7.41 µM | 152 and 152.02 | 26 mm | 208 to 209 °C |  | 25 mm | 1130 µM | — ((—): inactive (IC50 > 200 μg/mL)) | 25 mm | 24 mm | 22 mm | 27 mm | 26 mm | 250 µg/mL (≈ 539 µM) | MIC [13]: 250 µg/mL (≈ 539 µM); MIC [14]: 500 µg/mL (≈ 1080 µM); MIC [15]: 250 µg/mL (≈ 539 µM); MIC [16]: 500 µg/mL (≈ 1080 µM); MIC [17]: 500 µg/mL (≈ 1080 µM); MIC [18]: 250 to 500 µg/mL (≈ 539 to 1080 µM); MIC [20]: 500 µg/mL (≈ 1080 µM) |
| Cc1ccc2oc(=O)c3c(c2c1)OC(N)=C(C(N)=O)C3c1ccc([N+](=O)[O-])cc1 (racemic) [3a, (±)-2-Amino-9-methyl-4-(4-nitrophenyl)-5-oxo-4H,5H-pyrano[3,2-c]chromene-3-carboxamide] | 9.81 µM | 18.68 | 16 mm | 142 to 144 °C | 79.72 ± 4.51% | < 15 mm | 183 µM | — ((—): inactive (IC50 > 200 μg/mL)) | < 15 mm | 15 mm | 16 mm | 18 mm | < 15 mm | 1000 µg/mL (≈ 2540 µM) | % inhibition of paw oedema ([21]; 2.5 mg/kg orally, 1 h after inducing inflammation): 29.2% |
| COc1ccc2c(c1)c(CC(=O)O)c(C)n2C(=O)c1ccc(Cl)cc1 [Indomethacin, reference compound] |  |  |  |  |  |  |  |  |  |  |  |  |  |  | paw volume reduced compared to positive control ([21]; 1 h after formaldehyde): 72.09%; paw volume reduced compared to positive control ([21]; 2 h after formaldehyde): 74.79%; paw volume reduced compared to positive control ([21]; 3 h after formaldehyde): 71.5% |
